For 38 compounds, IC50 results are on record in patent US9278981B2, “Compounds and compositions for inhibiting the activity of ABL1, ABL2 and BCR-ABL1” (Novartis AG, priority 2012, dated 2016).

The target of assay [1] is T1, ABL1 (64-515) (Homo sapiens (Human), UniProt P00519). Put plainly: Radio ABL1 (64-515) assay (radiometric filter-binding). Format: biochemical.
Assay [2] addresses T1, ABL1 (64-515). The assay can be described thus: Caliper ABL1 (64-515) assay (microfluidic mobility shift). Format: biochemical.
Description: Expression and purification of human ABL was performed using standard expression purification procedures. […] The His-ABL was expressed in E. coli BL21 (DE3) and the ABL proteins were isolated by Ni-affinity on a Ni-NTA column (Qiagen). The His-tag was removed by PreScission protease (GE Healthcare) and the non-phosphoprylated ABL further purified on a Mono Q HR 10/10 (GE Healthcare, mono-phosphorylated ABL is about 10-20% of total ABL protein) and HiLoad 16/60 Superdex 200 size exclusion column (GE Healthcare).
All assays were performed in 384-well microtiter plates. Each assay plate contained 8-point serial dilutions for 40 test compounds, as well as four 8-point serial dilutions of staurosporine as a reference compound, plus 16 high and 16 low controls. Liquid handling and incubation steps were done on a Thermo CatX workstation equipped with Innovadyne Nanodrop Express. Between pipetting steps, tips were cleaned in wash cycles using wash buffer.
The assay plates were prepared by addition of 50 nL per well of compound solution in 90% DMSO. […] Plates with terminated kinase reactions were transferred to the Caliper LC3000 workstations for reading. Phosphorylated and unphosphorylated peptides were separated using the Caliper microfluidic mobility shift technology. Briefly, samples from terminated kinase reactions were applied to the chip. Analytes are transported through the chip by constant buffer flow and the migration of the substrate peptide is monitored by the fluorescence signal of its label. Phosphorylated peptide (product) and unphosphorylated peptide (substrate) are separated in an electric field by their charge/mass ratio. Kinase activities were calculated from the amounts of formed phospho-peptide. IC50 values were determined from percent inhibition values at different compound concentrations by non-linear regression analysis.
Test compounds were dissolved in DMSO (10 mM) and transferred into 1.4 mL flat bottom or V-shaped Matrix tubes carrying a unique 2D matrix. The stock solutions were stored at +2° C. if not used immediately. For the test procedure the vials were defrosted and identified by a scanner whereby a working sheet was generated that guided the subsequent working steps.
Compound dilutions were made in 96-well plates. This format enabled the assay of maximally 40 individual test compounds at 8 concentrations (single points) including 4 reference compounds. The dilution protocol included the production of “pre-dilution plates”, “master plates” and “assay plates”.
Polypropylene 96-well plates were used as pre-dilution plates. […] All dilution steps were done on a HamiltonSTAR robot.
These plates were used directly for the assay which was performed in a total volume of 9.05 μL.

T1 sequence (P00519 64-515): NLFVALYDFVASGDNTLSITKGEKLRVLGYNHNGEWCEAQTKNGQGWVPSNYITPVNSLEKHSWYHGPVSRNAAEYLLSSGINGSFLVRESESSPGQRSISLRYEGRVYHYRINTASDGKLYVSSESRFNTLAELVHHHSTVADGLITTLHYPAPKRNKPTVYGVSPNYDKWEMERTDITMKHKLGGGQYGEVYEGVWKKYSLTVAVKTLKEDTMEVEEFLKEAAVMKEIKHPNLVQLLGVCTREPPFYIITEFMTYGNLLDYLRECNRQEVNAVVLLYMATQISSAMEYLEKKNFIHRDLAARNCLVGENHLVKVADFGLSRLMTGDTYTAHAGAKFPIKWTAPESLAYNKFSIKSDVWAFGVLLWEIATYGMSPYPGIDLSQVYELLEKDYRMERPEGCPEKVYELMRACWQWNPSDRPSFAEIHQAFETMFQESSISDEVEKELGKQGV

For the compound `O=C(Nc1ccc(OC(F)(F)F)cc1)c1cnc(N2C[C@@H](O)[C@@H](O)C2)c(-c2cncc(F)c2)c1` [Example 235, 2-(cis-3,4-Dihydroxypyrrolidin-1-yl)-5′-fluoro-N-(4-(trifluoromethoxy)phenyl)-[3,3′-bipyridine]-5-carboxamide], the results for the IC50 at ABL1 (64-515) [1] and on ABL1 (64-515) [2] were 2 nM and 1.8 nM, respectively.

For `CN(C)[C@H]1CN(c2ncc(C(=O)Nc3ccc(OC(F)(F)F)cc3)cc2-c2cncc(F)c2)C[C@@H]1O` [Example 236, 2-((3S,4S)-3-(Dimethylamino)-4-hydroxypyrrolidin-1-yl)-5′-fluoro-N-(4-(trifluoromethoxy)phenyl)-[3,3′-bipyridine]-5-carboxamide], the IC50 at ABL1 (64-515) [1] was found to be 3 nM; on ABL1 (64-515) [2], 1.4 nM.

In the case of `NCC1CN(c2ncc(C(=O)Nc3ccc(OC(F)(F)F)cc3)cc2-c2cncc(F)c2)CC1O` (stereo not shown) [Example 237, 2-(3-(Aminomethyl)-4-hydroxypyrrolidin-1-yl)-5′-fluoro-N-(4-(trifluoromethoxy)phenyl)-[3,3′-bipyridine]-5-carboxamide], the IC50 on ABL1 (64-515) [1] was 0.6 nM; at ABL1 (64-515) [2], 1.2 nM.

As for `NC1CN(c2ncc(C(=O)Nc3ccc(OC(F)(F)F)cc3)cc2-c2cncc(F)c2)C1` [Example 238, 2-(3-Aminoazetidin-1-yl)-5′-fluoro-N-(4-(trifluoromethoxy)phenyl)-[3,3′-bipyridine]-5-carboxamide], the IC50 was determined as 2 nM at ABL1 (64-515) [1] and 2.6 nM at ABL1 (64-515) [2].

Consider `CN(C)C1CN(c2ncc(C(=O)Nc3ccc(OC(F)(F)F)cc3)cc2-c2cncc(F)c2)C1` [Example 239, 2-(3-(Dimethylamino)azetidin-1-yl)-5′-fluoro-N-(4-(trifluoromethoxy)phenyl)-[3,3′-bipyridine]-5-carboxamide], for which the IC50 at ABL1 (64-515) [1] stood at 4 nM; on ABL1 (64-515) [2] it was 2.6 nM.

Regarding `N#Cc1ccncc1-c1cc(C(=O)Nc2ccc(OC(F)(F)F)cc2)cnc1N1CC[C@@H](O)C1` [Example 240, (R)-4′-Cyano-2-(3-hydroxypyrrolidin-1-yl)-N-(4-(trifluoromethoxy)phenyl)-[3,3′-bipyridine]-5-carboxamide], the IC50 amounted to 2 nM at ABL1 (64-515) [1] and 1.4 nM at ABL1 (64-515) [2].

As to `Nc1ncc(-c2cc(C(=O)Nc3ccc(OC(F)(F)F)cc3)cnc2N2CC[C@@H](O)C2)cc1F` [Example 241, (R)-6′-Amino-5′-fluoro-2-(3-hydroxypyrrolidin-1-yl)-N-(4-(trifluoromethoxy)phenyl)-[3,3′-bipyridine]-5-carboxamide], the IC50 turned out to be 1.7 nM on ABL1 (64-515) [1] and 1.3 nM on ABL1 (64-515) [2].

Consider `O=C(Nc1ccc(OC(F)(F)F)cc1)c1cnc(N2CC[C@@H](O)C2)c(-c2cc(F)nc(F)c2)c1` [Example 242, (R)-2′,6′-Difluoro-2-(3-hydroxypyrrolidin-1-yl)-N-(4-(trifluoromethoxy)phenyl)-[3,4′-bipyridine]-5-carboxamide], for which the results for the IC50 at ABL1 (64-515) [1] and on ABL1 (64-515) [2] were 6 nM and 4.5 nM, respectively.

With `O=C(Nc1ccc(OC(F)(F)Cl)cc1)c1ccc(N2CC[C@@H](O)C2)c(-c2cncnc2)c1` [Example 243, (R)—N-(4-(Chlorodifluoromethoxy)phenyl)-4-(3-hydroxypyrrolidin-1-yl)-3-(pyrimidin-5-yl)benzamide], the IC50 was determined as 1.3 nM at ABL1 (64-515) [1] and 0.5 nM at ABL1 (64-515) [2].

For the compound `O=C(Nc1ccc(OC(F)(F)Cl)cc1)c1ccc(N2C[C@H](O)[C@@H](O)C2)c(-c2cncnc2)c1` [Example 244, N-(4-(Chlorodifluoromethoxy)phenyl)-4-((3S,4S)-3,4-dihydroxypyrrolidin-1-yl)-3-(pyrimidin-5-yl)benzamide], the IC50 worked out at 1 nM at ABL1 (64-515) [1] and 0.6 nM on ABL1 (64-515) [2].

Take `N[C@H]1CN(c2ccc(C(=O)Nc3ccc(OC(F)(F)Cl)cc3)cc2-c2cncnc2)C[C@@H]1O` [Example 245, 4-((3S,4S)-3-Amino-4-hydroxypyrrolidin-1-yl)-N-(4-(chlorodifluoromethoxy)phenyl)-3-(pyrimidin-5-yl)benzamide]: the IC50 at ABL1 (64-515) [1] is 5 nM; on ABL1 (64-515) [2] it was 1 nM.

Take `Cc1ncc(-c2cc(C(=O)Nc3ccc(OC(F)(F)Cl)cc3)ccc2N2C[C@H](O)[C@@H](O)C2)cn1` [Example 246, N-(4-(Chlorodifluoromethoxy)phenyl)-4-((3S,4S)-3,4-dihydroxypyrrolidin-1-yl)-3-(2-methylpyrimidin-5-yl)benzamide]: the IC50 on ABL1 (64-515) [1] was 1 nM; on ABL1 (64-515) [2], 2.2 nM.

Consider `O=C(Nc1ccc(OC(F)(F)Cl)cc1)c1cnc(N2CCC(F)(F)C2)c(-c2cncnc2)c1` [Example 247, N-(4-(Chlorodifluoromethoxy)phenyl)-6-(3,3-difluoropyrrolidin-1-yl)-5-(pyrimidin-5-yl)nicotinamide], for which the IC50 on ABL1 (64-515) [1] is 1.9 nM; at ABL1 (64-515) [2], less than 0.13 nM.

Take `CN(C)[C@H]1CN(c2ncc(C(=O)Nc3ccc(OC(F)(F)Cl)cc3)cc2-c2cncnc2)C[C@@H]1O` [Example 251]: the IC50 at ABL1 (64-515) [1] was less than 0.1 nM; at ABL1 (64-515) [2], 0.7 nM.

Take `NC12CC1CN(c1ncc(C(=O)Nc3ccc(OC(F)(F)Cl)cc3)cc1-c1cncnc1)C2` (stereo not shown) [Example 252]: the IC50 at ABL1 (64-515) [1] is 8.3 nM; at ABL1 (64-515) [2], 0.5 nM.

`N[C@@H]1[C@H]2CN(c3ncc(C(=O)Nc4ccc(OC(F)(F)Cl)cc4)cc3-c3cncnc3)C[C@@H]12` [Example 253]: the IC50 at ABL1 (64-515) [1] worked out at 2 nM; at ABL1 (64-515) [2] it was 0.5 nM.

As for `O=C(Nc1ccc(OC(F)(F)Cl)cc1)c1cnc(N2Cc3cn[nH]c3C2)c(-c2cncnc2)c1` [Example 254], the IC50 on ABL1 (64-515) [1] was less than 0.1 nM; at ABL1 (64-515) [2], 0.6 nM.

Consider `N[C@@H]1CCCN(c2ncc(C(=O)Nc3ccc(OC(F)(F)Cl)cc3)cc2-c2cncnc2)C1` [Example 255], for which the half-maximal inhibitory concentration (IC50) at ABL1 (64-515) [1] stood at 2.1 nM; on ABL1 (64-515) [2], 1.1 nM.

With `O=C(Nc1ccc(OC(F)(F)Cl)cc1)c1cnc(N2CCNC3(CC3)C2)c(-c2cncnc2)c1` [Example 256], the IC50 is 2 nM at ABL1 (64-515) [1] and 0.4 nM on ABL1 (64-515) [2].

For the compound `O=C(Nc1ccc(OC(F)(F)Cl)cc1)c1cnc(N2CC(O)C2)c(-c2cncnc2)c1` [Example 258], the IC50 amounted to 2.7 nM on ABL1 (64-515) [1] and 1.1 nM at ABL1 (64-515) [2].

Regarding `NC1CN(c2ncc(C(=O)Nc3ccc(OC(F)(F)Cl)cc3)cc2-c2cncnc2)C1` [Example 259], the IC50 at ABL1 (64-515) [1] is 5.1 nM; on ABL1 (64-515) [2] it was less than 0.13 nM.

Consider `O=C(Nc1ccc(OC(F)(F)Cl)cc1)c1cnc(N(CCO)CCO)c(-c2cncnc2)c1` [Example 261], for which the IC50 was 1.8 nM on ABL1 (64-515) [1] and 3.9 nM on ABL1 (64-515) [2].

On to `Cc1ncc(-c2cc(C(=O)Nc3ccc(OC(F)(F)Cl)cc3)cnc2N2C[C@H](O)[C@@H](O)C2)cn1` [Example 262], for which the IC50 came out at 2 nM at ABL1 (64-515) [1] and 0.7 nM on ABL1 (64-515) [2].

`Cc1ncncc1-c1cc(C(=O)Nc2ccc(OC(F)(F)Cl)cc2)cnc1N1CC[C@@H](O)C1` [Example 263]: the IC50 on ABL1 (64-515) [1] is 3 nM; on ABL1 (64-515) [2], less than 0.13 nM.

Consider `O=C(Nc1ccc(OC(F)(F)Cl)cc1)c1cnc(N2C[C@@H](O)[C@@H](O)C2)c(-c2cncc(F)c2)c1` [Example 264], for which the figures for the IC50 on ABL1 (64-515) [1] and at ABL1 (64-515) [2] were 1 nM and 0.6 nM, respectively.

Turning to `O=C(Nc1ccc(OC(F)(F)Cl)cc1)c1cnc(N2C[C@H](O)[C@@H](O)C2)c(-c2cncc(F)c2)c1` [Example 265], the IC50 at ABL1 (64-515) [1] is 3 nM; on ABL1 (64-515) [2], less than 0.13 nM.

Regarding `N#Cc1cncc(-c2cc(C(=O)Nc3ccc(OC(F)(F)Cl)cc3)cnc2N2C[C@H](O)[C@@H](O)C2)c1` [Example 269], the IC50 is less than 0.1 nM at ABL1 (64-515) [1] and less than 0.13 nM at ABL1 (64-515) [2].

In the case of `Cc1ncccc1-c1cc(C(=O)Nc2ccc(OC(F)(F)Cl)cc2)cnc1N1CC[C@@H](O)C1` [Example 270], the IC50 was 2 nM on ABL1 (64-515) [1] and 0.6 nM at ABL1 (64-515) [2].

`Nc1ncc(-c2cc(C(=O)Nc3ccc(OC(F)(F)Cl)cc3)cnc2N2CC[C@@H](O)C2)cc1F` [Example 271]: the results for the IC50 at ABL1 (64-515) [1] and on ABL1 (64-515) [2] were 0.5 nM and 0.7 nM, respectively.

On to `O=C(Nc1ccc(OC(F)(F)Cl)cc1)c1cnc(N2CC[C@@H](O)C2)c(-c2cc(F)cnc2F)c1` [Example 272], for which the IC50 on ABL1 (64-515) [1] is 4 nM; on ABL1 (64-515) [2], 1.1 nM.

For `O=C(Nc1ccc(OC(F)(F)Cl)cc1)c1cnc(N2CC[C@@H](O)C2)c(-c2cc(F)nc(F)c2)c1` [Example 273], the IC50 came to 2 nM on ABL1 (64-515) [1] and 1.2 nM on ABL1 (64-515) [2].

Take `N#Cc1ccncc1-c1cc(C(=O)Nc2ccc(OC(F)(F)Cl)cc2)cnc1N1CC[C@@H](O)C1` [Example 274]: the IC50 at ABL1 (64-515) [1] is less than 0.1 nM; on ABL1 (64-515) [2], 0.4 nM.

On to `CC(F)(F)Oc1ccc(NC(=O)c2cnc(N3CC[C@@H](O)C3)c(-c3cncc(F)c3)c2)cc1` [Example 275], for which the IC50 at ABL1 (64-515) [1] is 5 nM; on ABL1 (64-515) [2] it was 2.8 nM.

`CC(F)(F)Oc1ccc(NC(=O)c2cnc(N3CC[C@@H](O)C3)c(-c3cncc(C#N)c3)c2)cc1` [Example 276]: the IC50 at ABL1 (64-515) [1] stood at 3 nM; at ABL1 (64-515) [2], 6.8 nM.

Regarding `O=C(Nc1ccc(S(F)(F)(F)(F)F)cc1)c1cnc(N2CC[C@@H](O)C2)c(-c2cncc(F)c2)c1` [Example 277], the half-maximal inhibitory concentration (IC50) at ABL1 (64-515) [1] was 2 nM; at ABL1 (64-515) [2], 1.7 nM.

Regarding `O=C(Nc1ccc(SC(F)(F)F)nc1)c1cnc(N2CC[C@@H](O)C2)c(-c2cncnc2)c1` [Example 279, (R)-6-(3-Hydroxypyrrolidin-1-yl)-5-(pyrimidin-5-yl)-N-(6-((trifluoromethyl)thio)pyridin-3-yl)nicotinamide], the IC50 at ABL1 (64-515) [1] is 3 nM; on ABL1 (64-515) [2] it was 8 nM.

Consider `O=C(Nc1ccc(OC(F)(F)Cl)cc1)c1cnc(N2CC[C@@H](O)C2)c(-c2cnccc2F)c1` [Example 280, (R)—N-(4-(Chlorodifluoromethoxy)phenyl)-4′-fluoro-2-(3-hydroxypyrrolidin-1-yl)-[3,3′-bipyridine]-5-carboxamide], for which the IC50 at ABL1 (64-515) [1] came out at 2 nM; on ABL1 (64-515) [2], 0.3 nM.

For `N[C@]1(C(F)(F)F)CCN(c2ncc(C(=O)Nc3ccc(OC(F)(F)Cl)cc3)cc2-c2cncnc2)C1` [Example 289, (R)-6-(3-Amino-3-(trifluoromethyl)pyrrolidin-1-yl)-N-(4-(chlorodifluoromethoxy)phenyl)-5-(pyrimidin-5-yl)nicotinamide], the IC50 was determined as 3 nM on ABL1 (64-515) [1] and 0.7 nM on ABL1 (64-515) [2].
